Measurements taken from patent publication US20250230477A1, “A PROCESS FOR THE PREPARATION OF TETRAHYDROANTHRACENES FROM STREPTOMYCES SPP. AND ANTICANCER ACTIVITY THEREOF” (Council of Scientific and Industrial Research, priority 2021, published 2025).

Assays:
Staphylococcus aureus = assay: MIC, microtiter broth dilution; type: cell-based; conditions: dilutions 2-500 μg/ml, overnight 37° C.
Experimental: (§1) The minimum inhibitory concentrations (MIC) of purified compound showing significant zones of inhibition in the preliminary antimicrobial assay using agar well diffusion method were evaluated. MIC assay was carried out by a microtiter broth dilution method with some modifications. Stock solution of each pathogen was prepared in normal saline solution i.e. 0.85% NaCl (w/v) at a concentration of 10^8 cells/ml and finally diluted with respective growth media to give approximately 10^5 CFU/ml for all organisms. Different dilutions of compound was prepared (2-500 μg/ml) by serial dilutions. 100 μl of each concentration (2-500 μg/ml) of the compound was loaded onto each well and was mixed with 100 μl of diluted pathogens containing 10^5 CFU/ml. […] The microtitre plates were then incubated overnight at 37° C. for bacterial pathogens and 28° C. for fungal pathogens and were analysed after incubation.

Bacillus subtilis = assay: MIC, microtiter broth dilution; type: cell-based; conditions: dilutions 2-500 μg/ml, overnight 37° C.
Experimental: as §1

Bacillus cereus = assay: MIC, microtiter broth dilution; type: cell-based; conditions: dilutions 2-500 μg/ml, overnight 37° C.
Experimental: as §1

Micrococcus luteus = assay: MIC, microtiter broth dilution; type: cell-based; conditions: dilutions 2-500 μg/ml, overnight 37° C.
Experimental: as §1

MDA-MB-231 = assay: MTT cytotoxicity; type: cell-based; conditions: Homo sapiens; MDA-MB-231, MTT, 48 hours, 100 μM concentration range
Experimental: (§2) 5×10^3 cells were seeded/well in a 96 well plate and treated with Compounds (1-3) for 48 hours with 100 μM concentration range to a panel of cancer cell lines. After 44 hour MTT with final concentration of 0.5 mg/ml were added to cells and incubated for 4 hour at 37° C. until formazon crystals are formed. MTT was removed and formazon crystals were lysed by DMSO for 30 minutes at 37° C., the absorbance was measured at 570 nm and the IC50 values were calculated using graph pad prism.

HT-29 [1] = assay: MTT cytotoxicity; type: cell-based; conditions: Homo sapiens; HT-29, MTT, 48 hours, 100 μM concentration range
Experimental: as §2

MCF-7 [2] = assay: MTT cytotoxicity; type: cell-based; conditions: Homo sapiens, MCF7; MCF-7, MTT, 48 hours, 100 μM concentration range
Experimental: as §2

MiaPaca-2 [3] = assay: MTT cytotoxicity; type: cell-based; conditions: Homo sapiens, MIA PaCa-2; MiaPaca-2, MTT, 48 hours, 100 μM concentration range
Experimental: as §2

A549 = assay: MTT cytotoxicity; type: cell-based; conditions: Homo sapiens, 48 hours, 100 μM concentration range
Experimental: as §2

MTT cytotoxicity = type: cell-based; conditions: human, FR2 cells, 100 μM concentration range
Experimental: as §2

Panc-1 = assay: MTT cytotoxicity; type: cell-based; conditions: Homo sapiens; Panc-1, MTT, 48 hours, 100 μM concentration range
Experimental: as §2

HCT-116 [4] = assay: MTT cytotoxicity; type: cell-based; conditions: Homo sapiens; HCT-116, MTT, 48 hours, 100 μM concentration range
Experimental: as §2

PC3 = assay: MTT cytotoxicity; type: cell-based; conditions: Homo sapiens, PC-3, 48 hours, 100 μM concentration range
Experimental: as §2

MiaPaca-2 [5] = assay: Colony formation assay; type: cell-based, human; conditions: MiaPaca-2, concentrations nearby the IC50, 5 days
Experimental: (§3) Colony formation assay was performed to further certify the antiproliferative properties of setomimycin in four different cancer cell lines viz. HT-29, MiaPaca-2, HCT-116 and MCF-7. Cells were seeded onto 6 well plates at seeding density 1×10^3 fells/well and treated with increasing concentration of setomimycin nearby the IC50 values for 5 days. Upon termination the cells were stained with 0.1% crystal violet for 20-30 minutes and washed with dH2O thoroughly. The images were taken from plates with NIKON camera (D3100). Average colonies (n=3) were quantified from different fields. Bar graphs represent the number of colonies (n=3, error bars indicate ±SD).

[6] = system: Gram positive bacteria i.e. S. aureus, B. subtilis, B. cereus, and M. smegmatis; conditions: literature 1978; cited from earlier work
Sarcoma-180 = Sarcoma-180 mouse solid tumor model, 200 mg/kg per day for seven days; cited from earlier work
HT-29 [7] = assay: Colony formation assay; type: cell-based; conditions: HT-29, concentrations nearby the IC50, 5 days
Experimental: as §3

MCF-7 [8] = assay: Colony formation assay; type: cell-based; conditions: MCF-7, concentrations nearby the IC50, 5 days
Experimental: as §3

HCT-116 [9] = assay: Colony formation assay; type: cell-based; conditions: HCT-116, concentrations nearby the IC50, 5 days
Experimental: as §3

MiaPaca-2 [10] = assay: Scratch assay (migration); type: cell-based, human; conditions: MiaPaca-2, concentrations within the range of IC50
Experimental: (§4) Scratch assay was performed in the panel of cancer cell lines with varying degree of invasive and migratory capabilities as shown in FIG. 4. Our results unveiled that setomimycin inhibited the migratory potential of all the cell lines treated with different concentration of setomimycin within the range of their IC50 values. […] 5×10^5 cells were seeded onto 6 well plate and grown upto more than 90% confluency. After the proper attachment of cells wounds were created with the help of a 20-200 μL sterile pipette tip. Subsequently the cells were treated with indicated concentration of setomimycin and vehicle (DMSO). The images were taken under inverted microscope at 20× magnification.

HT-29 [11] = assay: Scratch assay (migration); type: cell-based; conditions: HT-29, concentrations within the range of IC50
Experimental: as §4

MCF-7 [12] = assay: Scratch assay (migration); type: cell-based; conditions: MCF-7, concentrations within the range of IC50
Experimental: as §4

HCT-116 [13] = assay: Scratch assay (migration); type: cell-based; conditions: HCT-116, concentrations within the range of IC50
Experimental: as §4

MCF-7 [14] = assay: Transwell invasion assay; type: cell-based; conditions: MCF-7, 48 hours, increasing concentration
Experimental: (§5) The above results depict significant antiproliferative effects of setomimycin in different cell lines near IC50 values. Transwell invasion assay was performed to check the anti-invasive properties of setomimycin. […] (A-B) 1.2×10^6 HCT-116 and MCF-7 cells were seeded in the upper chamber of inserts in serum free medium and treated with indicated concentration of setomimycin for 48 hours. (After 48 hours the invaded cells from lower insert were fixed with ice cold methanol and stained with 0.1% crystal violet for 20-30 minutes. After staining the inserts were washed with dH2O thoroughly and cells from three different fields in each treated condition were counted and photographed under an inverted microscope (20× magnifications). (C-D) Bar graph representing the number of invaded cells (n=3, error bars indicate ±SD).

HCT-116 [15] = assay: Transwell invasion assay; type: cell-based; conditions: HCT-116, 48 hours, increasing concentration
Experimental: as §5

BCL-2 = assay: Western blotting; type: cell-based; conditions: HCT-116 and MCF-7 cells, 48 h
Experimental: (§6) FIG. 5 Illustrates effect of setomimycin (Compound-3) pro-proliferative and anti-apoptotic protein targets in cancer cells: (A-B) Immunoblot analysis of ERK, p-MEK, Par-4, BCL-2 and β-actin in HCT-116 and MCF-7 cells treated with setomimycin for 48 h. (C-D) Densitometry analysis showing relative protein expression for the western blots presented Strong active potential of setomimycin against tumor cell proliferation and migration at nearby concentration of IC50 values was depicted by MTT data. Further, molecular docking studies predicted the strong affinity of setomimycin targeting MEK pathway. ERK and MEK are the major signaling pathways regulating cancer cell proliferation, differentiation and apoptosis. Therefore, Western blotting was carried out to check the effects of Setomimycin on ERK and MEK proteins.

Phospho MEK = assay: Western blotting; type: cell-based; conditions: HCT-116 and MCF-7 cells, 48 h, increasing concentration
Experimental: as §6

ERK = assay: Western blotting; type: cell-based; conditions: HCT-116 and MCF-7 cells, 48 h
Experimental: as §6

Par-4 = assay: Western blotting; type: cell-based; conditions: HCT-116 and MCF-7 cells, 48 h
Experimental: as §6

Row | Compound | Minimum Inhibitory Concentration (Staphylococcus aureus) | Minimum Inhibitory Concentration (Bacillus subtilis) | Minimum Inhibitory Concentration (Bacillus cereus) | Minimum Inhibitory Concentration (Micrococcus luteus) | IC50 (MDA-MB-231) [µM] | IC50 (HT-29 [1]) [µM] | IC50 (MCF-7 [2]) [µM] | IC50 (MiaPaca-2 [3]) [µM] | IC50 (A549) [µM] | IC50 at 48 h (MTT cytotoxicity) [µM] | IC50 (Panc-1) [µM] | IC50 (HCT-116 [4]) [µM] | IC50 (PC3) [µM] | other results
1 | CC(=O)[C@H]1c2c(c(O)c3c(O)cccc3c2-c2c3c(c(O)c4c(O)cccc24)C(=O)C[C@](C)(O)[C@H]3C(C)=O)C(=O)C[C@]1(C)O [Compound-2] | 12 | 6 | 6 | 4 | 12.5 | 15.5 | 11.2 | 8.31 | 38.7 | 62.3 | 21.3 | 18.9 | 17.5 | –
2 | CC(=O)[C@H]1c2cc3cccc(O)c3c(O)c2C(=O)C[C@]1(C)O [Compound-1] | 25 | 12 | 12 | 6 | 13.6 | 8.64 | 9.56 | 12.7 | 38.9 | 48.7 | 15.6 | 10.4 | 14.7 | –
3 | CC(=O)[C@@H]1C(C)=CC(=O)c2c1c(-c1c3c(c(O)c4c(O)cccc14)C(=O)C[C@](C)(O)[C@H]3C(C)=O)c1cccc(O)c1c2O [Compound-3, Setomimycin] | 8 | 16 | 4 | 8 | 7.5 | 4.2 | 6.9 | 4.57 | 11.5 | 53.3 | 48 | 5.3 | 7.02 | Antiproliferative effect, colony formation (MiaPaca-2 [5]): promising results near the IC50 values; Activity against Gram positive bacteria [6]: active; Tumor growth (Sarcoma-180): reduce tumor growth; Antiproliferative effect, colony formation (HT-29 [7]): promising results near the IC50 values; Antiproliferative effect, colony formation (MCF-7 [8]): promising results near the IC50 values; Antiproliferative effect, colony formation (HCT-116 [9]): promising results near the IC50 values; Cell migration, scratch assay (MiaPaca-2 [10]): inhibited the cell migration; Cell migration, scratch assay (HT-29 [11]): inhibited the cell migration; Cell migration, scratch assay (MCF-7 [12]): inhibited the cell migration; Cell migration, scratch assay (HCT-116 [13]): inhibited the cell migration; Invasion of cells, transwell (MCF-7 [14]): significantly inhibited; Invasion of cells, transwell (HCT-116 [15]): significantly inhibited; BCL-2 (antiapoptotic protein) expression, Western blot (BCL-2): downregulated; Phospho MEK expression, Western blot (Phospho MEK): down regulated; ERK protein expression, Western blot (ERK): downregulation; Par-4 (pro-apoptotic protein) expression, Western blot (Par-4): upregulated
